Data published in US9789111B2, “Casein kinase 1δ (CK 1δ) inhibitors” (Electrophoretics Limited, priority 2010, dated 2017).

Tests used:
[1] = target: KDR/VEGFR2 (Homo sapiens, UniProt P35968); assay: kinase inhibition assay panel; type: biochemical
Description: Base Reaction buffer; 20 mM Hepes (pH 7.5), 10 mM MgCl2, 1 mM EGTA, 0.02% Brij35, 0.02 mg/ml BSA, 0.1 mM Na3VO4, 2 mM DTT, 1% DMSO
It should be noted that required cofactors are added individually to each kinase reaction.
• 1. Prepare indicated substrate in freshly prepared Base Reaction Buffer as described above • 2. Deliver any required cofactors to the substrate solution • 3. Deliver indicated kinase into the substrate solution and gently mix • 4. Deliver compounds in DMSO into the kinase reaction mixture • 5. Deliver ^33P-ATP (specific activity 0.01 μCi/μl final) into the reaction mixture to initiate the reaction • 6. Incubate kinase reaction for 120 min. at room temperature • 7. Reactions are spotted onto P81 ion exchange paper (Whatman #3698-915) • 8. Wash filters extensively in 0.75% Phosphoric acid Kinase Information: • CK1δ—Genbank Accession # NP_620693 • Recombinant human full-length construct. GST-tagged, expressed in insect cells. • Final concentration in assay=4 nM • Substrate: CK1tide • Substrate sequence: [KRRRAL[pS]VASLPGL] • Final substrate concentration in assay=20 μM • It should be noted that no additional cofactors are added to the reaction mixture.

[2] = target: CK1g1 (Homo sapiens, UniProt Q9HCP0); assay: kinase inhibition assay panel; type: biochemical
Chain of CK1g1 (Q9HCP0 whole entry): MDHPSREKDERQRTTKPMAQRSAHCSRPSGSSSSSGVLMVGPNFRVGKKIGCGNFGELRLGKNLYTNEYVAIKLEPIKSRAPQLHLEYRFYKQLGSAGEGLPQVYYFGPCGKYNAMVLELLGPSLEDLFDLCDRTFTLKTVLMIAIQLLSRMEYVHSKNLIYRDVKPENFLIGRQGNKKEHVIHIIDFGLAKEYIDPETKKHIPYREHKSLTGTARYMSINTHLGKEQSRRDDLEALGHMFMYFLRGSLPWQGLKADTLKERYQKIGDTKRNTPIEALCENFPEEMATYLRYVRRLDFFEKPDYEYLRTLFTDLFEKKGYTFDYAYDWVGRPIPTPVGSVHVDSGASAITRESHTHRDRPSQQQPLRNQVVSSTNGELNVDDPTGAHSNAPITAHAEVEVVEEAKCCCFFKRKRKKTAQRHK

[3] = tested on: Tau phosphorylation in SH-SY5Y-TMHT cells; assay: PhosphoTau SRM assay V2 and V3 (mass spectrometric); type: cell-based, human; details: for relative level of phosphorylation at each site (level of phosphopeptide) compared with vehicle treated controls / Tau phosphorylated at S396: 10 μM; for relative level of phosphorylation at each site (level of phosphopeptide) compared with vehicle treated controls: PhosphoTau SRM assay V2 and V3; for Tau phosphorylated at S396: vehicle control approximately 83%; for phosphorylation of Ser 396 within Tau proteins: FIG. 4
From the text: The PhosphoTau SRM V2 assay measures total tau and relative phosphorylation levels at five of the most commonly studied sites on Tau and was obtained from Proteome Sciences plc (Cobham, England). None of the sites in the V2 assay is uniquely phosphorylated by CK1δ and there is a possibility that compound-induced inhibition of phosphorylation measured by this method may be achieved through promiscuous inhibition of other kinases such as GSK3b and/or CDK5. […] Table 1 lists the various sites covered and the candidate Tau kinases reported in Hanger et al. (2007).
SH-SY5Y-TMHT cells are kept in culture medium (DMEM medium, 10% FCS, 1% NEAA, 1% L-Glutamine, 100 μg/ml Gentamycin, 300 μg/ml Geneticin G-418) for 2 days until 80-90% confluency. Cells are then differentiated in culture medium supplemented with 10 μM retinoic acid (RA) for 7 days changing medium every 2 to 3 days. […] On day 8 post-differentiation, the test compounds, reference compounds and vehicle control were added to the culture medium. After 6 h of compound exposure one plate of cells is subjected to a MTT assay to evaluate the effect of test and reference items on cell viability. Remaining wells are washed once with cold PBS and harvested in 300 μl RIPA-Buffer [50 mM Tris pH 7.4, 1% Nonident P40, 0.25% Na-deoxy-cholate, 150 mM NaCl, 1 mM EDTA, 1 μM NaF, 1 μM Na-ortho-vanadate, 80 mM Glycerophosphate, supplemented with freshly added protease (Calbiochem) and phosphatase (Sigma) inhibitor cocktail]. The cell suspension is transferred into a 1.5 ml tube and additionally lysed by sonication on ice. An aliquot of 20 μl is taken for the determination of the protein concentration (BCA assay). Subsequently, the lysates are snap frozen and stored at −80° C. until shipment.
Stacking gels are loaded with approximately 100 μg total protein based on BCA assay results. Gels are run until the total protein content forms a single discrete band in the stacking gel. Each protein band is then cut from the gel and digested with either trypsin or Asp-N and analysed using the PhosphoTau SRM assay V2 or V3 respectively. Each assay method quantifies the phosphorylation in pre-clinical material using a triple quadrupole mass spectrometer (TSQ Vantage, Thermo Scientific, Hemel Hempstead, UK). Prior to SRM analysis phosphopeptides and pre-clinical samples were resolved by RP-chromatography (XBridge column, Waters, Manchester, UK) over a 9 minute gradient 0-30% ACN (buffer A; 0.1% FA, buffer B; ACN, 0.1% FA). Light and heavy versions for each peptide and phosphopeptide were monitored by several SRM transitions, using optimised S Lens values and collision energy settings. The area under the SRM LC peak was used to quantitate the amount of analyte present in each cell lysate as a single point reference to the signal of the heavy peptide spike.
An 11 point calibration curve of light phosphopeptides with each point in the curve spiked with 100 fmol heavy phosphopeptides was also produced to determine assay characteristics (LOD, LOQ, precision and accuracy). For each specified tau population, the endogenous level of each tau phosphopeptide was quantified against its calibration curve (0.25-1000 fmol on column). Prior to LC-SRM analysis each tau population was spiked with 100 fmol of the heavy phosphopeptide standards.

Chain of KDR/VEGFR2 (P35968 20-1356): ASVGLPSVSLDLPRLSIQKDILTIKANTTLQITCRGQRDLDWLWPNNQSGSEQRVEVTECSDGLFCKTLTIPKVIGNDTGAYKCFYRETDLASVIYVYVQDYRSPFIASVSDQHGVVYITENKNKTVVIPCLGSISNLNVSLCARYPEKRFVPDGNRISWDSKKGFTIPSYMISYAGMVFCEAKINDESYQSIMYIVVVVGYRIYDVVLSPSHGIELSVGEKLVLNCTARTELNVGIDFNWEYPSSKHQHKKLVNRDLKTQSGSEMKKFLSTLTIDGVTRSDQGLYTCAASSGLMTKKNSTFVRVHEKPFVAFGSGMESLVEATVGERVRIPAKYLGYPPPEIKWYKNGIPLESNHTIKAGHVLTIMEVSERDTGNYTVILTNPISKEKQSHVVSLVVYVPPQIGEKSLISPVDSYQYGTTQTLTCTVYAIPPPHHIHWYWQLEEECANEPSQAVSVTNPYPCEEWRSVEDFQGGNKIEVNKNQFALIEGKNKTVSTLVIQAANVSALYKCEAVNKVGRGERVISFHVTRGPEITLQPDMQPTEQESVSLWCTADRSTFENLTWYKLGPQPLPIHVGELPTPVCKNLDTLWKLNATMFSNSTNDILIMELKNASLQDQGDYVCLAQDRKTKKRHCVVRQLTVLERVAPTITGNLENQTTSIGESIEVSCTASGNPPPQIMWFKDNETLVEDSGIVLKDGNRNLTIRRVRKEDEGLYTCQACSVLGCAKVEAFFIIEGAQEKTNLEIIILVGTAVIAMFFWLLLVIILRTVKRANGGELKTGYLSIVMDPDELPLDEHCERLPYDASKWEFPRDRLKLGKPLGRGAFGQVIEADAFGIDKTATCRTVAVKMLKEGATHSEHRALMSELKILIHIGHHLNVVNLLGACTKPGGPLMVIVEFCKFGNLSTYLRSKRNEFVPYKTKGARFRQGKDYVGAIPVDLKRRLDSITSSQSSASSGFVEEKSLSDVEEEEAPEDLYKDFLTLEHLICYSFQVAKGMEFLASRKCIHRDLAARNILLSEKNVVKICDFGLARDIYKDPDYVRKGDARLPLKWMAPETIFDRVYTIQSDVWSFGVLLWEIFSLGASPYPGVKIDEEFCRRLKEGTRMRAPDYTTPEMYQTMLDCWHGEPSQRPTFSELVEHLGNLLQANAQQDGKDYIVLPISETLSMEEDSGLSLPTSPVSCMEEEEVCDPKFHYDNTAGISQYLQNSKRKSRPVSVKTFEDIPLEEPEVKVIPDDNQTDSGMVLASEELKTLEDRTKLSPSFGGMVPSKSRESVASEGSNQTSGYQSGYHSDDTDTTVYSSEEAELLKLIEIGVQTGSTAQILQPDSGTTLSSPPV

In the case of Nc1ncc(-c2nc3ccccc3o2)c(-c2ccncc2)n1 [Compound 324, 5-(1,3-benzoxazol-2-yl)-4-(pyridin-4-yl)pyrimidin-2-amine], the “inhibition of KDR/VEGFR2” value [1] is reported as “lower than 40%”, the “inhibition of CK1g1” value [2] is reported as “lower than 40%” and the “relative level of phosphorylation at each site (level of phosphopeptide) compared with vehicle treated controls” value [3] is reported as “distinct reduction”. The “Tau phosphorylated at S396” value [3] was 38% and the “phosphorylation of Ser 396 within Tau proteins” value [3] was “inhibit phosphorylation”.

NC(=O)c1c(N)c(C(=O)c2ccc(F)cc2)n2ccccc12 [Compound 987, 2-amino-3-[(4-fluorophenyl)carbonyl]indolizine-1-carboxamide] was tested, and the “inhibition of KDR/VEGFR2” value [1] was “lower than 40%”, the “inhibition of CK1g1” value [2] was “lower than 40%” and the “relative level of phosphorylation at each site (level of phosphopeptide) compared with vehicle treated controls” value [3] was “distinct reduction”. For the same compound, the “Tau phosphorylated at S396” value [3] was 24% and the “phosphorylation of Ser 396 within Tau proteins” value [3] was “inhibit phosphorylation”.
